From PMC8752738, “A propolis-derived small molecule ameliorates metabolic syndrome in obese mice by targeting the CREB/CRTC2 transcriptional complex” (Nature Communications, 2022)
Where “and” joins values, the source holds several entries; their conditions need not be identical. Equal entries are not always repeated. Where two headings read alike, the source gives them in different places.

What was measured:
Type in all cases: in vivo, mouse
[1] = Tissue distribution assay; conditions: for concentration at 8 h / concentration at 4 h / concentration at 2 h: male, C57/BL6, mouse, po, 20 mg/kg
Method: Male C57/BL6 mice (18–20 g, n = 3 in each group) were randomly sorted into treatment groups. Being fasted for 12-h, mice were treated with oral gavage of the compound APC (20 mg/kg, in DMSO/0.5% HMPC, 5/95, v/v). After 2, 4, and 8-h of administration, the animals were sacrificed, respectively, the indicated tissues, including plasma, liver, kidney, muscle, brain, spleen, pancreas, white and brown fat, were collected and preserved at −80 °C. The APC content in samples was analyzed with a liquid chromatography-mass spectrometry/mass spectrometry (LC–MS/MS) system and normalized by protein content.

FGF21 [2] = test: Immunoblotting of plasma and liver FGF21
Method: 1 Supplementary Figure 10. A57 is novel inhibitor of the CREB/CRTC2 protein complex. […]
20 e) Immunoblotting of plasma and liver FGF21 protein in Crtc2KO mice, which induced by a high
21 fat diet for 13 weeks then orally administered APC (20 mg/kg), A57 (20 mg/kg) or vehicle (VEH) for
1 3 weeks. Two technological repeats present a composite pool including 5 mice per group. One
2 representative result from three-independent experiments is shown here.
3 f) Relative plasma FGF21 (top) and liver FGF21 (bottom), normalized by R250 signaling or
4 ACTIN respectively, is shown here as a bar graph. Data are represented as mean ± SEM (n=5 per
5 group, two technological repeats present a composite pool). ns, p > 0.05; *, p < 0.05; **, p < 0.01; p
7 for this figure are provided as a Source data file.

FGF21 [3] = test: Immunoblotting of plasma and liver FGF21; remark: listed apart in the source

For CC(C)=CCc1cc(C=CC(=O)O)cc(CC=C(C)C)c1O [APC, 3,5-diprenyl-4-hydroxycinnamic acid], the APC-PO-heart-plasma ([1]; heart plasma, PO, 2H, individual mice) was 28.92 ng/mL and 27.48 ng/mL, the APC-PO-heart-plasma ([1]; heart plasma, PO, 4H, individual mice) was 64.03 ng/mL and 39.57 ng/mL and the APC-PO-heart-plasma ([1]; heart plasma, PO, 8H, individual mice) was 7.56 ng/mL and 19.01 ng/mL and 14.9 ng/mL. It also gave a concentration at 8 h ([1]; brain, Brain, 8H, oral, individual mice, * below the detection line, read-out: APC content in tissue) of 0 ng/g, a concentration at 4 h ([1]; brain, brain, 4 h after oral, Figure 5l, Y, read-out: average APC content 4 h after oral) of 3.18 ng/g and a concentration at 4 h ([1]; brain, brain, 4 h after oral, Figure 5l, size of bubble, read-out: average APC content 4 h after oral) of 3.18 ng/g. It also gave a concentration at 4 h ([1]; brown fat (BF), BF, 4 h after oral, Figure 5l, size of bubble, read-out: average APC content 4 h after oral) of 56.3 ng/g, a concentration at 4 h ([1]; brown fat, BF, 4 h after oral, Figure 5l, Y, read-out: average APC content 4 h after oral) of 56.3 ng/g and a concentration at 2 h ([1]; brown fat, BrownFat, 2H, oral, individual mice, read-out: APC content in tissue) of 11.1 ng/g. The concentration at 2 h ([1]; heart plasma, heart plasma, PO, 2H, individual mice, read-out: APC-PO-heart-plasma) was 32.1 ng/mL, the concentration at 4 h ([1]; heart plasma, heart plasma, PO, 4H, average, read-out: avarage APC, APC-PO-heart-plasma) was 48.5 ng/mL and the concentration at 4 h ([1]; heart plasma, heart plasma, PO, 4H, individual mice, read-out: APC-PO-heart-plasma) was 41.8 ng/mL. The concentration at 4 h ([1]; kidney, kidney, 4 h after oral, Figure 5l, Y, read-out: average APC content 4 h after oral) was 16.4 ng/g, the concentration at 4 h ([1]; kidney, kidney, 4 h after oral, Figure 5l, size of bubble, read-out: average APC content 4 h after oral) was 16.4 ng/g and the concentration at 4 h ([1]; liver, LIVER, 4 h after oral, Figure 5l, Y, read-out: average APC content 4 h after oral) was 917 ng/g. It also gave a concentration at 4 h ([1]; liver, LIVER, 4 h after oral, Figure 5l, size of bubble, read-out: average APC content 4 h after oral) of 917 ng/g, a concentration at 2 h ([1]; liver, Live (liver), 2H, oral, individual mice, read-out: APC content in tissue) of 756 ng/g and a concentration at 4 h ([1]; liver, Live (liver), 4H, oral, individual mice, read-out: APC content in tissue) of 729 ng/g. The concentration at 8 h ([1]; liver, Live (liver), 8H, oral, individual mice, read-out: APC content in tissue) was 178 ng/g, the concentration at 2 h ([1]; liver, avarage APC, Live (liver), 2H, oral, average, heading: avarage APC) was 679 ng/g and the concentration at 4 h ([1]; liver, avarage APC, Live (liver), 4H, oral, average, heading: avarage APC) was 917 ng/g. The concentration at 2 h ([1]; muscle, Muscle, 2H, oral, individual mice, read-out: APC content in tissue) was 3.77 ng/g, the concentration at 4 h ([1]; muscle, Muscle, 4H, oral, individual mice, read-out: APC content in tissue) was 6.73 ng/g and the concentration at 4 h ([1]; muscle, Muscle, 4 h after oral, Figure 5l, Y, read-out: average APC content 4 h after oral) was 9.1 ng/g. For the same molecule, the concentration at 4 h ([1]; muscle, Muscle, 4 h after oral, Figure 5l, size of bubble, read-out: average APC content 4 h after oral) was 9.1 ng/g, the concentration at 4 h ([1]; pancreas, panc, 4 h after oral, Figure 5l, Y, read-out: average APC content 4 h after oral) was 20.8 ng/g and the concentration at 4 h ([1]; pancreas, panc, 4 h after oral, Figure 5l, size of bubble, read-out: average APC content 4 h after oral) was 21.2 ng/g. It also gave a concentration at 4 h ([1]; portal vein plasma, po-portal vein plasma, 4 h after oral, Figure 5l, Y, read-out: average APC content 4 h after oral) of 48.5 ng/g, a concentration at 4 h ([1]; portal vein plasma, po-portal vein plasma, 4 h after oral, Figure 5l, size of bubble, read-out: average APC content 4 h after oral) of 48.5 ng/g and a concentration at 2 h ([1]; spleen, Spleen, 2H, oral, individual mice, read-out: APC content in tissue) of 15.6 ng/g. It also gave a concentration at 4 h ([1]; spleen, Spleen, 4H, oral, individual mice, read-out: APC content in tissue) of 13.8 ng/g, a concentration at 4 h ([1]; spleen, spleen, 4 h after oral, Figure 5l, Y, read-out: average APC content 4 h after oral) of 16.2 ng/g and a concentration at 4 h ([1]; spleen, spleen, 4 h after oral, Figure 5l, size of bubble, read-out: average APC content 4 h after oral) of 16.2 ng/g. For the same molecule, the concentration at 4 h ([1]; white fat, WF, 4 h after oral, Figure 5l, Y, read-out: average APC content 4 h after oral) was 32.7 ng/g, the concentration at 4 h ([1]; white fat, WF, 4 h after oral, Figure 5l, size of bubble, read-out: average APC content 4 h after oral) was 32.7 ng/g and the concentration at 2 h ([1]; white fat, WhiteFat, 2H, oral, individual mice, read-out: APC content in tissue) was 18.5 ng/g. For the same molecule, the concentration at 4 h ([1]; white fat, WhiteFat, 4H, oral, individual mice, read-out: APC content in tissue) was 23.2 ng/g, the “plasma and liver FGF21” value (FGF21 [2]; Crtc2KO mice, oral 20 mg/kg, 3 weeks) was “did not further increase” and the “liver FGF21 in CRTC2, group mean (Mean 2)” value (FGF21 [2]; Supp. Fig.10 f down, CRTC2KO mice, n=3, VEH mean 2.47) was 2.579. The “Bands density of FGF21 in the liver” value (FGF21 [2]; Supp. Fig.10 f down, CT2KO (CRTC2KO) mice, oral, individual replicates, Veh about 2.47) was 2.47 and 2.45 and 2.816, the “Bands density, plasma FGF21 in CRTC2” value (FGF21 [2]; Supp. Fig.10 f up, CRTC2KO mice, individual replicates, VEH about 2.31) was 2.4404 and 2.52 and 2.451 and the “Bands density, plasma FGF21 in CRTC2, group mean (Mean 2)” value (FGF21 [2]; Supp. Fig.10 f up, CRTC2KO mice, n=3, VEH mean 2.31) was 2.47. For the same molecule, the “liver FGF21 in WT, group mean (Mean 2)” value (FGF21 [3]; Supp. Fig.10 f down, WT mice, n=3, VEH mean 1.024) was 2.405, the “Bands density of FGF21 in the liver” value (FGF21 [3]; Supp. Fig.10 f down, WT mice, oral, individual replicates, Veh about 1.02) was 2.277 and 2.103 and 2.8341 and the “Bands density, plasma FGF21 in WT” value (FGF21 [3]; Supp. Fig.10 f up, WT mice, individual replicates, VEH about 1.08) was 1.716 and 1.667 and 1.521. For the same molecule, the “Bands density, plasma FGF21 in WT, group mean (Mean 2)” value (FGF21 [3]; Supp. Fig.10 f up, WT mice, n=3, VEH mean 1.077) was 1.634 and the “plasma and liver FGF21” value (FGF21 [3]; wild-type control group, oral 20 mg/kg, 3 weeks) was “increased”.
